# Measured values published in ChEMBL document CHEMBL1125446 (J Med Chem, 1992).
# Positions of bridges follow the written chain, without caps; N, C: chain ends. Non-standard residues stand in square brackets, D forms with d. Residues, ends and D or L forms follow the SMILES beside them.
# What was measured:
# Endothelin-1 receptor [1] = target: T1, Endothelin-1 receptor (Sus scrofa, UniProt Q29010); assay: Compound was evaluated for the binding affinity towards Endothelin A receptor in porcine aortic membranes; type: cell membranes
# T1 sequence (Q29010 whole entry): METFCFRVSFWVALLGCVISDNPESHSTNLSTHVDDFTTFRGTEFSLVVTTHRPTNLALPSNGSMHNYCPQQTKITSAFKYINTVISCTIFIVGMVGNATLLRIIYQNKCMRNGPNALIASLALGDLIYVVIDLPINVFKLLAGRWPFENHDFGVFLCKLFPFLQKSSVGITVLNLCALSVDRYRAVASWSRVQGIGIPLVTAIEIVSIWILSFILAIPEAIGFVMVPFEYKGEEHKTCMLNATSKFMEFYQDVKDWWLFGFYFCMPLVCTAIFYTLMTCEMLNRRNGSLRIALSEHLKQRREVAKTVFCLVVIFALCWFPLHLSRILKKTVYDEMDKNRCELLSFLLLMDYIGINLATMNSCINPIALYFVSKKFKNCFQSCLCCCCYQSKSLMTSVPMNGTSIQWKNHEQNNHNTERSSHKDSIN
# Rattus norvegicus = species: Rattus norvegicus; assay: Compound was evaluated for the Inositol phosphate accumulation in rat skin fibroblasts.; type: functional
# Endothelin-1 receptor [2] = target: T2, Endothelin-1 receptor (Rattus norvegicus, UniProt P26684); assay: Compound was evaluated for the binding affinity to Endothelin A receptor in the rat aorta; type: tissue-based
# T2 sequence (P26684 whole entry): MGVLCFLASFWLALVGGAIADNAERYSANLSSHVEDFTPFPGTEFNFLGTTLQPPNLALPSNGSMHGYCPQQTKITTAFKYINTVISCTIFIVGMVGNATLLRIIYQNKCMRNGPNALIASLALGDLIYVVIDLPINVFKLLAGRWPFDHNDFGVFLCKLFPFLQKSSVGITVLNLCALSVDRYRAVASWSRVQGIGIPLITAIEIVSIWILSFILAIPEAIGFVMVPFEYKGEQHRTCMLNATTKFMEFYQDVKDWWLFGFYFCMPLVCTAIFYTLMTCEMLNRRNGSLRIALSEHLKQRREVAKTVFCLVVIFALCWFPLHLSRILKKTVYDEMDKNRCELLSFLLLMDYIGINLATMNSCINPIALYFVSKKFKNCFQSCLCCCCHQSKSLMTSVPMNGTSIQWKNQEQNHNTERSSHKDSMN
# [3] = target: T3, Endothelin receptor type B (Rattus norvegicus, UniProt P21451); assay: Compound was evaluated for the binding affinity to Endothelin B receptor in the rat hippocampus; type: tissue-based
# T3 sequence (P21451 whole entry): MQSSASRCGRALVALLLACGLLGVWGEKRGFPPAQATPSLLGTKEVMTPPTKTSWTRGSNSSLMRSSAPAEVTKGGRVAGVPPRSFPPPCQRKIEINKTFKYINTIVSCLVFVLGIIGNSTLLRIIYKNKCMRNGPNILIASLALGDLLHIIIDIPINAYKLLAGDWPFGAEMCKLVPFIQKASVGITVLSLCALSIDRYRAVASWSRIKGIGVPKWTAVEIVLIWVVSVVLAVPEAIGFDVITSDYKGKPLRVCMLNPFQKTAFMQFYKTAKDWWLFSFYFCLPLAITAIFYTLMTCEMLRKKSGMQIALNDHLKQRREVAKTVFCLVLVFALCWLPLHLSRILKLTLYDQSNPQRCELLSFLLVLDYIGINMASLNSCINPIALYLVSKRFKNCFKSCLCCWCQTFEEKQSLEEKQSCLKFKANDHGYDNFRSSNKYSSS
# Endothelin-1 receptor [4] = target: T2, Endothelin-1 receptor; assay: Compound was evaluated for the binding affinity to Endothelin A receptor in the rat atrium; type: tissue-based, Cardiac atrium
# [5] = target: T3, Endothelin receptor type B; assay: Compound was evaluated for the binding affinity to Endothelin B receptor in the rat cerebellum; type: tissue-based
# Endothelin-1 receptor [6] = target: T1, Endothelin-1 receptor; assay: Compound was evaluated for the binding affinity to Endothelin A receptor in the porcine aortic smooth muscle
# [7] = target: T4, Endothelin receptor, ET-A/ET-B (Homo sapiens, UniProt P24530+P25101); assay: Compound was evaluated for the Inhibition of the contractile response of Endothelin A receptor in rabbit thoracic aorta; type: functional, tissue-based, Oryctolagus cuniculus; conditions: target entry is the homologue from another species
# T4 sequence (P24530 whole entry): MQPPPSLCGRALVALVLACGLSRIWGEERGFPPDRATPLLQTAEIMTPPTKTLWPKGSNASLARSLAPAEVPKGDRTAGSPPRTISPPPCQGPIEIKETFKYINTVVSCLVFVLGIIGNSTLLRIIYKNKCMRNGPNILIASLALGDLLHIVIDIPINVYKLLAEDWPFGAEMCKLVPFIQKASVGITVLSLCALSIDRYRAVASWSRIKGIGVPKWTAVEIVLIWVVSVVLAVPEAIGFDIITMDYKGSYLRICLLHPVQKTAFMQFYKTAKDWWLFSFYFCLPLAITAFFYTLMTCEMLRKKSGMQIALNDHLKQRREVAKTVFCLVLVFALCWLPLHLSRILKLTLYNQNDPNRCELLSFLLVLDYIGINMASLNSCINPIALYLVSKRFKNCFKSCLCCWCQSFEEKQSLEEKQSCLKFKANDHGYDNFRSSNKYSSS
# T4 sequence (P25101 whole entry): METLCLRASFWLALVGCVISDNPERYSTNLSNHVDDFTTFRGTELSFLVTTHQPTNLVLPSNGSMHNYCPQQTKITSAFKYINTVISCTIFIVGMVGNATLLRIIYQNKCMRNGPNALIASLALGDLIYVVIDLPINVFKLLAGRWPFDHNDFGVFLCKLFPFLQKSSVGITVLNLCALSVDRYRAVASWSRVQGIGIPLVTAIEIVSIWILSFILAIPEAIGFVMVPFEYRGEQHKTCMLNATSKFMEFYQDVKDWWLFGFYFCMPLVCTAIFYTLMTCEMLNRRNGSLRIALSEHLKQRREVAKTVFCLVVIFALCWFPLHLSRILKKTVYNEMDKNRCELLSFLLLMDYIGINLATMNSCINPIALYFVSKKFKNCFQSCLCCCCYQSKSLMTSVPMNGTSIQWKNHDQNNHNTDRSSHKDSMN
compound,measurement,setting,value
CC(C)C[C@H](NC(=O)Cc1ccccc1Cl)C(=O)N(C)[C@H](Cc1c[nH]c2ccccc12)C(=O)N[C@H](CC(C)C)C(=O)O,IC50,Endothelin-1 receptor [1],32000 nM
CNC(=O)[C@H](Cc1ccccn1)NC(=O)[C@@H](Cc1c[nH]c2ccccc12)N(C)C(=O)[C@@H](CC(=O)N1CCCCCC1)CC(C)C,IC50,Endothelin-1 receptor [1],7600 nM
H-HLDIIW-OH,IC50,Rattus norvegicus,< 50000 nM
CC[C@H](C)[C@H](NC(=O)[C@@H](NC(=O)[C@H](CC(=O)O)NC(=O)[C@H](CCC(N)=O)NC(=O)[C@H](Cc1cnc[nH]1)NC(=O)[C@@H]1CSSC[C@H](N)C(=O)N[C@@H]([C@@H](C)O)C(=O)N[C@H]2CSSC[C@H](NC(=O)[C@H](CCC(=O)O)NC(=O)[C@H](CCC(=O)O)NC(=O)[C@H](CC(=O)O)NC(=O)[C@H]([C@@H](C)O)NC(=O)[C@H](CCSC)NC(=O)[C@H](CC(=O)O)NC(=O)[C@H](CC(N)=O)NC2=O)C(=O)N[C@@H](CC(C)C)C(=O)N[C@@H](CC(N)=O)C(=O)N[C@@H](Cc2ccccc2)C(=O)N1)C(C)C)C(=O)N[C@@H](Cc1c[nH]c2ccccc12)C(=O)O,Ki,Endothelin-1 receptor [2],> 5000 nM
same,Ki,[3],0.023 nM
same,Ki,Endothelin-1 receptor [4],4200 nM
same,Ki,[5],0.016 nM
CC[C@@H](C)[C@@H](NC(=O)[C@@H](NC(=O)[C@H](CC(=O)O)NC(=O)[C@H](CC(C)C)NC(=O)[C@H](Cc1c[nH]cn1)NC(C)=O)[C@@H](C)CC)C(=O)N[C@@H](Cc1c[nH]c2ccccc12)C(=O)O (Ac-HLDI[dI]W-OH),IC50,Rattus norvegicus,< 50000 nM
"CC(C)C[C@@H]1NC(=O)[C@@H](C(C)C)NC(=O)[C@H](C)NC(=O)[C@@H](CCC(=O)O)NC(=O)[C@@H](Cc2c[nH]c3ccccc23)NC1=O (single isomer, unassigned)",IC50,Endothelin-1 receptor [6],1400 nM
CC[C@H](C)[C@H](NC(=O)[C@H](CC(=O)O)NC(=O)[C@H](CC(C)C)NC(=O)[C@@H](Cc1c[nH]cn1)NC(C)=O)C(=O)N[C@H](C(=O)N[C@@H](Cc1c[nH]c2ccccc12)C(=O)O)[C@@H](C)CC (Ac-[dH]LDIIW-OH),IC50,Rattus norvegicus,1400 nM
CC[C@H](C)[C@H](NC(=O)[C@H](CC(=O)O)NC(=O)[C@H](CC(C)C)NC(=O)[C@H](Cc1c[nH]cn1)NC(=O)[C@@H]1CSSC[C@H](N)C(=O)N[C@@H]([C@@H](C)O)C(=O)N[C@H]2CSSC[C@H](NC(=O)[C@H](CCC(=O)O)NC(=O)[C@H](CCCCN)NC(=O)[C@H](CC(=O)O)NC(=O)[C@H](CCCCN)NC(=O)[C@H](Cc3ccc(O)cc3)NC(=O)[C@H]([C@@H](C)O)NC(=O)[C@H](Cc3ccccc3)NC2=O)C(=O)N[C@@H](C(C)C)C(=O)N[C@@H](Cc2ccc(O)cc2)C(=O)N[C@@H](Cc2ccc(O)cc2)C(=O)N1)C(=O)N[C@H](C(=O)N[C@@H](Cc1c[nH]c2ccccc12)C(=O)O)[C@@H](C)CC [ENDOTHELIN 3],Ki,Endothelin-1 receptor [2],2.5 nM
same,Ki,[3],0.036 nM
same,Ki,Endothelin-1 receptor [4],1.6 nM
same,Ki,[5],0.021 nM
CC(C)C[C@H](NC(=O)N1CCCCCC1)C(=O)N(C)[C@H](Cc1c[nH]c2ccccc12)C(=O)N[C@H](Cc1ccccn1)C(=O)N(C)CC(=O)O,IC50,Endothelin-1 receptor [1],7600 nM
Ac-HLDIIW-OH,IC50,Rattus norvegicus,< 50000 nM
CC(C)C[C@H](NC(=O)C1CCCCC1)C(=O)N(C)[C@H](Cc1c[nH]c2ccccc12)C(=O)N[C@H](Cc1ccccn1)C(=O)O.Cl,IC50,[7],230000 nM
same,IC50,Endothelin-1 receptor [1],2300 nM
CC(C)C[C@@H]1NC(=O)[C@@H](C(C)C)NC(=O)[C@@H]2CCCN2C(=O)[C@@H](CC(=O)O)NC(=O)[C@@H](Cc2c[nH]c3ccccc23)NC1=O [BQ-123] (cyclo(L[dW][dD]P[dV])),IC50,Endothelin-1 receptor [6],22000 nM
"CC[C@H](C)[C@H](NC(=O)[C@@H](NC(=O)[C@H](CC(=O)O)NC(=O)[C@H](CCC(N)=O)NC(=O)[C@H](Cc1cnc[nH]1)NC(=O)[C@@H]1CSSC[C@H](N)C(=O)N[C@@H](CO)C(=O)N[C@H]2CSSC[C@H](NC(=O)[C@H](CCC(=O)O)NC(=O)[C@H](CCCCN)NC(=O)[C@H](CC(=O)O)NC(=O)[C@H]([C@@H](C)O)NC(=O)[C@H](CCSC)NC(=O)[C@H](CC(=O)O)NC(=O)[C@H](CCCCN)NC2=O)C(=O)N[C@@H](CC(C)C)C(=O)N[C@@H](Cc2ccc(O)cc2)C(=O)N[C@@H](Cc2ccccc2)C(=O)N1)C(C)C)C(=O)N[C@@H](Cc1c[nH]c2ccccc12)C(=O)O (H-CSCKDMTDKECLYFCHQDVIW-OH; disulfide 1-15, 3-11)",Ki,Endothelin-1 receptor [2],0.24 nM
same,Ki,[3],0.012 nM
same,Ki,Endothelin-1 receptor [4],0.087 nM
same,Ki,[5],0.013 nM
CC(C)C[C@H](NC(=O)N1CCCCCC1)C(=O)N(C)[C@H](Cc1c[nH]c2ccccc12)C(=O)N[C@H](Cc1ccccn1)C(=O)O,IC50,Endothelin-1 receptor [1],2500 nM
CC(C)C[C@H](NC(=O)N1CCCCCC1)C(=O)N(C)[C@H](Cc1c[nH]c2ccccc12)C(=O)N[C@H](Cc1ccccn1)C(=O)N[C@@H](Cc1ccccc1)C(=O)O,IC50,Endothelin-1 receptor [1],21000 nM
